Laboratory results reported in patent US10894777B2, “TG2 inhibitor piperazine compounds and uses thereof” (UNIVERSITY OF OTTAWA, priority 2016, dated 2021).

Key:
Type in all cases: cell-based, human
TG2 level = TG2 level immunoblot, SCC-13 spheroids; settings: 20 μM, 48 hours
Procedure: In (A), SCC-13 cells (40,000) were plated in non-adherent six well dishes, grown for 8 days in spheroid medium, and then NC9 was added and spheroid number was monitored at 0-48 hours. In (B), spheroids were grown for 10 days, treated for 48 hours with indicated level of NC9 and photographed. In (C), SCC-13 cells were plated at 40,000 cells per well in non-adherent six well dishes and after 10 days the spheroids were treated with 0-20 μM NC9 for 0-72 hours before trypan blue exclusion viability assay. In (D), SCC-13 spheroids were grown for 10 days, treated with 0 or 20 μM NC9 for 48 hours, and TG2 level was assayed by immunoblot. In (E), SCC-13 cells were grown as monolayers in spheroid medium and TG2 activity was monitored by FC incorporation assay as outlined in the Materials and Methods for Example 7. In (F), SCC-13 cell 8 day spheroids were treated with […] NC9 and cells were harvested at the indicated times for immunoblot detection of procaspase 3 and cleaved caspase 3. In all panels, the values are mean±SEM, n=3, p<0.05.

A431 cells [1] = experiment: EMT marker immunoblot, A431 cells; settings: 20 μM, 48 h
Procedure: In (A), it is shown that A431-derived ECS cells have elevated TG2 and mesenchymal markers. A431 cells (40,000 cells/well) were grown in spheroid media in monolayer conditions or as non-attached spheroids (ECS cells) for 10 d. Cells were harvested and lysates prepared for immunoblot. In (B), A431 cells were electroporated with 3 μg of control- or TG2-siRNA and at 72 h extracts were prepared to assay TG2 and EMT marker level. In (C), A431-derived ECS cells were electroporated with 3 μg of the indicated siRNA and then grown as spheroids for 96 h. […] In (D), A431 cells (500,000 cells/well) were plated in monolayer culture in spheroid media in 100 mm dishes. The following day, at time zero, 0 or 20 μM NC9 was added with fresh addition of medium and NC9 at 24 h. At 48 h the cells were harvested and extracts prepared for immunoblot. In (E), A431 cells were pretreated in 0 or 20 μM NC9 for 2 h and then harvested and 25,000 cells were seeded in the upper chamber above a matrigel-coated membrane in 1 mL of growth medium containing 1% FCS in a Millicell chamber. The lower chamber was filled with growth medium containing 10% FCS. […] Confluent monolayers were then scratched with a 10-μL pipette tip, rinsed, and width of the wound was monitored for 0-14 h. […]

SCC-13 cells = experiment: Trypan Blue viability assay, SCC-13 spheroids; settings: 0-20 μM, 0-72 hours
Procedure: Trypan Blue viability assay. SCC-13 cells were grown as spheroids in six well cluster dishes in spheroid medium for 8 days and then treated with 0-20 μM NC9. At 0, 24, 48, and 72 hours post-NC9 treatment, spheroids were counted, and all cells in the well were collected to prepare a single cell suspension in Hank's Balanced Salt Solution. Trypan Blue solution (0.5 mL, 0.4%) was added to a 15 mL conical tube with 0.3 mL of Hank's Balanced Salt Solution and 0.2 ml of cell suspension. After 10 min, 8 μL of the mixture was transferred to a hemocytometer to count viable and total cell number.

TG2 mRNA = TG2 mRNA expression by qRT-PCR in GBM cell lines; settings: 10 μM, 24 or 48 h
Procedure: Q-RTPCR. After RNA isolation, cDNA was synthesized using the verso cDNA kit (ThermoFisher) with oligo-dT primers following the manufacturer's instructions. Quantitative real time PCR was carried out using SYBR green mix (Agilent Technologies) along with primers against total human TG2 or GAPDH (for normalization) as previously described (Cao, L. et al., Oncogene 31(20):2521-34, 2012).

A431 cells [2] = experiment: Migration (scratch wound closure) assay, A431 cells; settings: 20 μM
Procedure: In (A), it is shown that A431-derived ECS cells have elevated TG2 and mesenchymal markers. A431 cells (40,000 cells/well) were grown in spheroid media in monolayer conditions or as non-attached spheroids (ECS cells) for 10 d. Cells were harvested and lysates prepared for immunoblot. In (B), A431 cells were electroporated with 3 μg of control- or TG2-siRNA and at 72 h extracts were prepared to assay TG2 and EMT marker level. In (C), A431-derived ECS cells were electroporated with 3 μg of the indicated siRNA and then grown as spheroids for 96 h. […] In (D), A431 cells (500,000 cells/well) were plated in monolayer culture in spheroid media in 100 mm dishes. […] Confluent monolayers were then scratched with a 10-μL pipette tip, rinsed, and width of the wound was monitored for 0-14 h.
In (A), A431 cells were grown as monolayers or in ultralow attachment plates (spheroids) in spheroid medium. […] Spheroid number was counted on days 1, 2 and 3. […] Spheroid number and trypan-blue viable cell number were determined at the indicated times following NC9 addition. […] A wound was created and ability of the cells to close the wound was monitored with time. […]
Migration assay. […] Images were collected, at 0-18 h after the scratch using the 10× objective, and the width of the opening was measured as a function of time as an index of cell migration potential.

With C=CC(=O)NCCCC[C@H](NC(=O)OCc1ccccc1)C(=O)NCCOCCOCCNS(=O)(=O)c1cccc2c(N(C)C)cccc12 [NC9] the TG2 level (TG2 level) was “not associated with reduced TG2 level”, the EMT markers expression (A431 cells [1]) was “reduction in EMT markers expression” and the “viable cell number (trypan blue exclusion)” value (SCC-13 cells) was “concentration-dependent reduction in viable cell number”. The “TG2 mRNA levels” value (TG2 mRNA) was “no significant effects” and the “cell migration / scratch wound closure” value (A431 cells [2]) was “reduced cell migration”.
